# From patent US20230312578A1, “6H-INDOLO[2,3-B]QUINOXALINE DERIVATIVES USEFUL IN THERAPY” (Vironova Medical AB, priority 2020, published 2023)
# Where two headings read alike, the source gives them in different places.
# Experiments:
# Type in all cases: cell-based
# [1] = tested on: KM12; experiment: Human tumor cell line growth assay (SRB); conditions: Homo sapiens; Colon, KM12, 48 h
# [2] = Human tumor cell line growth assay (SRB); conditions: human, KM12 cells (colon), KM12, 48 h, read-out: LC50
# [3] = tested on: RPMI-8226; experiment: Human tumor cell line growth assay (SRB); conditions: Homo sapiens; Leukemia, RPMI-8226, 48 h
# [4] = tested on: ACHN; experiment: Human tumor cell line growth assay (SRB); conditions: Renal, 48 h
# [5] = tested on: SN12C; experiment: Human tumor cell line growth assay (SRB); conditions: Renal, 48 h
# [6] = tested on: UACC-257; experiment: Human tumor cell line growth assay (SRB); conditions: Homo sapiens; Melanoma, UACC-257, 48 h
# [7] = Human tumor cell line growth assay (SRB); conditions: human, UACC-257 cells (melanoma), UACC-257, 48 h, read-out: LC50
# [8] = tested on: 786-0; experiment: Human tumor cell line growth assay (SRB); conditions: Renal, 786-0, 48 h
# [9] = Human tumor cell line growth assay (SRB); conditions: human, OVCAR-4 cells (ovarian), OVCAR-4, 48 h, read-out: LC50
# [10] = tested on: OVCAR-4; experiment: Human tumor cell line growth assay (SRB); conditions: Homo sapiens; Ovarian, OVCAR-4, 48 h
# [11] = tested on: HCT-116; experiment: Human tumor cell line growth assay (SRB); conditions: Homo sapiens; Colon, HCT-116, 48 h
# [12] = Human tumor cell line growth assay (SRB); conditions: human, HCT-116 cells (colon), HCT-116, 48 h, read-out: LC50
# [13] = tested on: CAKI-1; experiment: Human tumor cell line growth assay (SRB); conditions: Renal, CAKI-1, 48 h
# [14] = tested on: T-47D; experiment: Human tumor cell line growth assay (SRB); conditions: T47D, Breast, 48 h
# [15] = tested on: MOLT-4; experiment: Human tumor cell line growth assay (SRB); conditions: Homo sapiens; Leukemia, MOLT-4, 48 h
# [16] = Human tumor cell line growth assay (SRB); conditions: human, MOLT-4 cells (leukemia), MOLT-4, 48 h, read-out: LC50
# [17] = tested on: SR; experiment: Human tumor cell line growth assay (SRB); conditions: Homo sapiens, Leukemia, 48 h
# [18] = Human tumor cell line growth assay (SRB); conditions: human, SR cells (leukemia), read-out: LC50
# [19] = Human tumor cell line growth assay (SRB); conditions: human, SNB-19 cells (CNS), SNB-19, 48 h, read-out: LC50
# [20] = tested on: SNB-19; experiment: Human tumor cell line growth assay (SRB); conditions: Homo sapiens; CNS, SNB-19, 48 h
# [21] = Human tumor cell line growth assay (SRB); conditions: human, SW-620 cells (colon), SW-620, 48 h
# [22] = tested on: SW-620; experiment: Human tumor cell line growth assay (SRB); conditions: Homo sapiens; Colon, SW-620, 48 h
# [23] = tested on: MDA-MB-468; experiment: Human tumor cell line growth assay (SRB); conditions: Breast, MDA-MB-468, 48 h
# [24] = tested on: MDA-MB-231/ATCC; experiment: Human tumor cell line growth assay (SRB); conditions: Breast, 48 h
# [25] = tested on: K-562; experiment: Human tumor cell line growth assay (SRB); conditions: K562, Leukemia, K-562, 48 h
# [26] = Human tumor cell line growth assay (SRB); conditions: human, SK-MEL-2 cells (melanoma), SK-MEL-2, 48 h, read-out: LC50
# [27] = tested on: SK-MEL-2; experiment: Human tumor cell line growth assay (SRB); conditions: Homo sapiens; Melanoma, SK-MEL-2, 48 h
# [28] = tested on: A549/ATCC; experiment: Human tumor cell line growth assay (SRB); conditions: Homo sapiens, NSCLC, 48 h
# [29] = Human tumor cell line growth assay (SRB); conditions: human, A549/ATCC cells (NSCLC), read-out: LC50
# [30] = tested on: CCRF-CEM; experiment: Human tumor cell line growth assay (SRB); conditions: Leukemia, 48 h
# [31] = tested on: IGR-OV1; experiment: Human tumor cell line growth assay (SRB); conditions: Homo sapiens, IGROV-1; Ovarian, IGR-OV1, 48 h
# [32] = Human tumor cell line growth assay (SRB); conditions: human, IGR-OV1 cells (ovarian), IGR-OV1, 48 h, read-out: LC50
# [33] = tested on: TK-10; experiment: Human tumor cell line growth assay (SRB); conditions: Renal, TK-10, 48 h
# [34] = tested on: NCI/ADR-RES; experiment: Human tumor cell line growth assay (SRB); conditions: Ovarian, 48 h
# [35] = tested on: MALME-3M; experiment: Human tumor cell line growth assay (SRB); conditions: Homo sapiens, Melanoma, 48 h
# [36] = Human tumor cell line growth assay (SRB); conditions: human, MALME-3M cells (melanoma), read-out: LC50
# [37] = tested on: OVCAR-8; experiment: Human tumor cell line growth assay (SRB); conditions: Ovarian, OVCAR-8, 48 h
# [38] = read-out: LC50 (the source's name)
smiles,measurement,setting,value
"Cc1cc2nc3c4cc(N)ccc4n(CCN(C)C)c3nc2cc1C [JBD-136, 6-(2-(dimethylamino)ethyl)-2,3-dimethyl-6H-indolo [2,3-b]quinoxalin-9-amine]",GI50,[1],1200 nM
same,CC50 at 48 h,[2],94700 nM
same,GI50,[3],740 nM
same,GI50,[4],367 nM
same,CC50,[4]; [38],57300 nM
same,GI50,[5],553 nM
same,CC50,[5]; [38],> 100000 nM
same,GI50,[6],1500 nM
same,CC50 at 48 h,[7],71500 nM
same,GI50,[8],1520 nM
same,LC50,[8],38500 nM
same,CC50 at 48 h,[9],59000 nM
same,GI50,[10],1700 nM
same,GI50,[11],369 nM
same,CC50 at 48 h,[12],51400 nM
same,GI50,[13],427 nM
same,CC50,[13]; [38],85500 nM
same,GI50,[14],2260 nM
same,CC50,[14]; [38],> 100000 nM
same,GI50,[15],366 nM
same,CC50 at 48 h,[16],71900 nM
same,GI50,[17],239 nM
same,CC50 at 48 h,[18],> 100000 nM
same,CC50 at 48 h,[19],> 100000 nM
same,GI50,[20],767 nM
same,LC50 (50% lethal concentration) at 48 h,[21],83800 nM
same,GI50,[22],389 nM
same,GI50,[23],1030 nM
same,CC50,[23]; [38],8280 nM
same,GI50,[24],1220 nM
same,CC50,[24]; [38],57500 nM
same,GI50,[25],426 nM
same,CC50,[25]; [38],65600 nM
same,CC50 at 48 h,[26],66700 nM
same,GI50,[27],1630 nM
same,GI50,[28],464 nM
same,CC50 at 48 h,[29],> 100000 nM
same,GI50,[30],862 nM
same,CC50,[30]; [38],76900 nM
same,GI50,[31],596 nM
same,CC50 at 48 h,[32],> 100000 nM
same,GI50,[33],2260 nM
same,CC50,[33]; [38],> 100000 nM
same,GI50,[34],506 nM
same,CC50,[34]; [38],> 100000 nM
same,GI50,[35],1270 nM
same,CC50 at 48 h,[36],7430 nM
same,GI50,[37],556 nM
same,CC50,[37]; [38],> 100000 nM
